# Assay results as given in ChEMBL document CHEMBL3507680, “University of Dundee, Gates Library screen for HepG2 cell viability”.
# Assay: Human HepG2 cell viability assay in 384 well format
# Format: toxicity, cell-based
# Design: dose 125 nL, time 70.5 hour; cytotoxicity at 70.5 h: concentration not given beside the values
# Settings: HepG2 cells, read-out: Inhibition
row,SMILES,cytotoxicity at 70.5 h [%]
1,CCc1c(C)nc2ccccc2c1N1CCC(NC(C)=O)CC1,-6.65
2,CC1CN(C(=O)CCc2cc(Br)cs2)CCO1 (stereo not given),-4.33
3,CS(=O)(=O)CCCNC1(c2ccc(Br)cc2)CCC1,-5.79
4,Cc1nnc(CN(Cc2ccc(Cl)c(Cl)c2)C2CC2)o1,-3.07
5,Cc1cc(C(=O)N2CCc3c(ncn3CCc3ccccc3)C2)on1,-7.15
6,CC(C)N1CCC(N(C)c2ccnc(N(C)C)n2)CC1,-2.26
7,Cc1cc(C)c(C(=O)N2CCc3c(ncn3CCc3ccccc3)C2)[nH]1,-8.62
8,Cc1nonc1C(=O)N1CCc2c(ncn2CCc2ccccc2)C1,-7.1
9,CN(C)c1nccc(N(C)C2CCN(CC3CCOC3)CC2)n1 (stereo not given),-4.93
10,COc1c(C)cnc(CN(C)C2CCCCC2)c1C,8.25
11,Cc1cnn(CCNCC(=O)N(C)C(C)c2ccccc2)c1 (stereo not given),-10.5
12,CCN1CCN(c2ccc(NC(=O)CC(C)C)c(C)c2)CC1,-20.9
13,CNC(=O)NC(=O)C(C)N1CCN(c2ccc(C#N)cc2F)CC1 (stereo not given),-12.9
14,N#Cc1c(F)cccc1N1CCCC(C(=O)Nc2nncs2)C1 (stereo not given),-16.9
15,Cc1ccc(OCCCNC(=O)CN(C)c2ccc(C#N)cn2)cc1,3.18
16,COCCNC(=O)NC(=O)CNc1c(F)cccc1N1CCCC1,-16.6
17,COc1c(C)cnc(CN(C)C2CCN(C3CCOCC3)CC2)c1C,-0.744
18,Cc1cnn(CCNCC(=O)NC(c2ccccc2)c2ccccc2)c1,-16
19,CC1(C)Cc2ccc(C(=O)NC3CCOCC3)c(O)c2O1,7.2
20,O=C(Nc1cccs1)NC(CCCO)c1ccccc1 (stereo not given),-17.7
21,CCNC(=O)N1CCc2ccc(NC(=O)NCC3CC3)cc21,-12.1
22,COc1ccccc1C(C)(C)NC(=O)NCCC(=O)NC1CCCC1,-12.5

row,SMILES,cytotoxicity at 70.5 h [%]
1,COc1ncccc1NC(=O)NC(CCCO)c1ccccc1 (stereo not given),11.2
2,O=C(Nc1ccccn1)NC(CCCO)c1ccccc1 (stereo not given),-5.11
3,Cn1cccc1C(=O)NC1(C(=O)NCC2CC2)CCCC1,-11.4
4,O=C1C(Nc2nccn3cnnc23)CCCN1c1ccccc1Cl (stereo not given),-2.45
5,O=C1CC[C@H](C(=O)Nc2cnn(-c3ccccc3Br)c2)N1,-16.8
6,Cc1cc(F)ccc1N1CCCC(Nc2nccn3cnnc23)C1=O (stereo not given),-2.63
7,N#Cc1ccc(F)cc1Cn1cnc(C2CCC2)cc1=O,-9.04
8,N#Cc1cc(Cn2cnc(C3CCC3)cc2=O)ccc1F,-15.4
9,CC(C)(C)c1nc(NS(=O)(=O)c2ccccc2F)no1,-18.1
10,CC(C)(C)c1nc(NS(=O)(=O)c2cccc(F)c2)no1,-8.66
11,CCN1CCCN(C(=O)c2ccc(NC(=O)CC(C)C)c(C)c2)CC1,-12.9
12,COC(=O)c1ccc(CN(C)C(=O)c2cnsn2)cc1,-14.6
13,c1cc(CN2CCCCC2)cc(NCc2cc[nH]n2)c1,7.51
14,Cc1ccccc1CN(CC(=O)O)C(=O)COCC1CC1,0.683
15,CC(C)n1ncc2c1NC(=O)C(C#N)C21CCCC1 (stereo not given),-11.3
16,CCn1ncc2c1NC(=O)C(C#N)C21CCCC1 (stereo not given),-11.6
17,N#CC1C(=O)Nc2c(cnn2C2CCCC2)C12CCCCC2 (stereo not given),-1.92
18,CC(C)C(NC(=O)c1ccc(Cl)cc1Cl)C(=O)Nc1cnn(C)c1 (stereo not given),4.14
19,O=C(NCc1ccnc(O)c1)NCC1CCCC1,-1.59
20,COCC(=O)NCCc1ccc(I)s1,-8.78
21,CC(C)COCC(NC(=O)CSc1nnc[nH]1)c1ccco1 (stereo not given),-12.5
22,CC(C)(C)C(O)CN1CCN(CC(=O)NC2CCOCC2)CC1 (stereo not given),-7.28

row,SMILES,cytotoxicity at 70.5 h [%]
1,CCOc1cc(NC(=O)NCCn2cnnc2CC)ccc1C,-6.28
2,CCc1nc2n(n1)CCCC2NC(=O)Nc1ccc(F)cc1C#N (stereo not given),1.79
3,CC(C)(C)OC(=O)NC1(c2noc(-c3ccoc3)n2)CCC1,-6.71
4,CCc1nc2n(n1)CCCC2NC(=O)Nc1cccc(F)c1F (stereo not given),4.24
5,CNC(=O)CC1CCN(C(=O)Nc2ccc(-c3cc[nH]n3)cc2)CC1,-4.66
6,O=S(=O)(Cc1ccccc1)NCc1ccnc(O)c1,0.635
7,O=S(=O)(CC1CCCCC1)NCc1ccc(O)nc1,-10.2
8,CN1CCN(S(C)(=O)=O)Cc2cccnc21,-2.81
9,c1cc(CN2CCCC3(CCN(CC4CCCO4)CC3)C2)n[nH]1 (stereo not given),-6.85
10,O=S(=O)(C1CC1)N1CCC2(CN(c3ncccn3)C2)C1,9.33
11,Cc1nc(CO[C@H]2CN(C(=O)c3cccnc3)[C@@H]3COC[C@H]23)cs1,-6.99
12,Cn1cnc2c(-c3cccnc3)nc(C3CCN(S(C)(=O)=O)CC3)cc21,-8.84
13,Cc1ccc(CN2CC[C@H]3CO[C@H](CN(C)C)[C@H]3C2)o1,-11.2
14,COCCNC(=O)[C@]12COC[C@H]1CN(C1CCOCC1)C2,10.6
15,CN1C(=O)CC(c2ccccc2)C12CCN(c1ncccn1)CC2 (stereo not given),27.6
16,CC(C)NC(=O)N1C[C@H]2C[C@H](C(=O)N3CCCC3)[C@@H](C1)O2,21.9
17,COCCN1C[C@@H]2CN(c3cnccn3)C[C@@H]2C1=O,-10.9
18,O=C(Cc1ccco1)N1C[C@@H]2COC[C@]2(COCC2CCOCC2)C1,-7.33
19,CC(C)[C@H]1CN(Cc2ccccn2)C[C@@H]1NS(=O)(=O)C1CC1,-3.34
20,CCCOC1CCCN(c2ncnc3c2CCN(C(=O)C2CC2)C3)C1 (stereo not given),-7.75
21,COc1cc2c(cc1CNC(=O)C(C)n1ccnc1C(C)C)CCC2 (stereo not given),-11.2
22,Cc1nc(CN2CCN(c3cc(CCN)ncn3)CC2)cs1,-2.73

row,SMILES,cytotoxicity at 70.5 h [%]
1,Cc1nc(C)n(CCCNc2ncnc(C)c2C)n1,18
2,Cc1nn(CCO)c(C)c1-c1cc(C(C)(C)C)nc(N)c1C#N,16.9
3,Cc1ccnc(N2Cc3cnn(Cc4ccc(F)cc4)c3C2)n1,15.1
4,N[C@H]1CN(C(=O)CCCc2ccc(F)cc2)C[C@@H]1C1CC1,-6.92
5,CN(C)CCCN(C)C1CCN(c2cccc(-c3cscn3)c2)CC1,-2.04
6,O=C(O)C1(Cc2ccccc2F)CCCN(c2ncnc3[nH]ccc23)C1 (stereo not given),-0.879
7,CC(=O)NCc1cc2n(n1)CCN(Cc1cccc(Cl)c1Cl)C2,0.275
8,CC(C)c1noc(CN(C)C(=O)c2ncn[nH]2)n1,3.61
9,CC1CCc2n[nH]c(C(=O)NCCc3ccco3)c2C1 (stereo not given),-2.98
10,Cc1c(C(=O)N2CCCC(O)(CN(C)C)CC2)c2cc(O)ccc2n1C (stereo not given),13.3
11,COc1ccc(-c2nc(C3CCNCC3)cc3c2ncn3C)cc1,11.7
12,c1cncc(CNc2ccc3nc(C4CCNCC4)nn3c2)c1,-4.24
13,COc1cc(N2CCCC3(CCN(c4cccnc4)C3=O)C2)ncn1 (stereo not given),19.9
14,CS(=O)(=O)N1C[C@H](C(=O)Nc2cccnc2)[C@@H]2CCO[C@@H]2C1,-4.86
15,Cc1cnc(C(=O)N2CCC3(CCN3Cc3ccc(F)cc3)C2)cn1 (stereo not given),-0.513
16,O=c1ccc2c(n1CC1CC1)CCC(NCc1cccs1)C2 (stereo not given),-10.4
17,Cn1cc(-c2ncnc3c2CCN(CC2CCOC2)CC3)cn1 (stereo not given),-7.49
18,Cc1ccc(CN2CC[C@@H]3[C@@H]2CCN3C(=O)Cc2cccs2)o1,-5.34
19,CCc1cnc(N2CCc3cc(C(=O)NC)c(N(C)C)nc3CC2)nc1,-13.6
20,Cc1ccc(CN2CC[C@H]3OCC[C@@]3(COCC(=O)N(C)C)C2)s1,15.2
21,Fc1cccc(-c2nnn3c2COC(CNCc2nccs2)C3)c1 (stereo not given),14.6
22,COC[C@@]12CCO[C@@H]1CCN(Cc1ccc(C)s1)C2,15.9

row,SMILES,cytotoxicity at 70.5 h [%]
1,O=C([C@@H]1COC[C@H]2CN(C3CCCC3)C[C@H]21)N1CCC(F)CC1,-1.78
2,COC[C@@]12CCO[C@@H]1CCN(Cc1ccccc1OC)C2,-12.9
3,c1ccc(NC[C@@H]2CCC[C@@H]3CN(c4ncccn4)C[C@@H]32)nc1,-13.7
4,CC(C)COC1CC2(CCN(C(=O)Cc3ccccn3)CC2)C1,-11.8
5,O=C([C@H]1COC[C@H]2CN(C3CCCCC3)C[C@H]21)N1CCOCC1,-9.52
6,O=C(NC1CC1)[C@H]1CC[C@@H]2[C@@H](CCN2CCOCc2ccccc2)O1,-8.73
7,Cn1ccc(C(=O)N2C[C@@H]3CCN(c4cnccn4)C[C@@H]3C2)n1,-9.79
8,Cc1ccc(N2CC[C@H]3CN(C(=O)c4ccn(C)n4)C[C@H]3C2)nn1,-7.56
9,CNC(=O)[C@H]1C[C@@H]2CN(Cc3c(C)noc3C)C[C@@H]2N1C(C)=O,-3.36
10,CCCN1CC[C@@H]2[C@@H](CO[C@H]2CNC(=O)c2nccn2C)C1,-5.44
11,O=C1[C@@H]2CN(Cc3ccccn3)C[C@H]2CCN1c1cncnc1,-4.74
12,Cc1cc(CN2CC[C@]3(C[C@@H](OCC(=O)N(C)C)CO3)C2)no1,-6.96
13,Cn1cc(-c2ncc3c(c2C(=O)O)CCN(Cc2ccccn2)C3)cn1,-1.31
14,COCC1CN(CCOc2ccc(Cl)cc2)Cc2c1cnn2C (stereo not given),-6.25
15,COCCn1c2c(ccc1=O)CC(NCc1cccnc1OC)CC2 (stereo not given),-13.6
16,Cc1cccc(CN2CC[C@@H]3[C@@H]2CCN3C(=O)Cc2ccsc2)n1,-22.6
17,CN(C)C[C@]12COC[C@H]1CN(Cc1ccc3c(c1)OCO3)C2,-2.79
18,Cc1ccc(CN2CC[C@@H]3[C@@H](CO[C@H]3CN(C)C)C2)o1,-5.5
19,Cn1cc(N2C[C@@H]3CN(Cc4ccccn4)C[C@@H]3C2=O)cn1,24.4
20,CNC(=O)[C@@H]1C[C@H]2CN(Cc3c(C)noc3C)C[C@H]2N1C(C)C,-7.3
21,CCCN1CCC(c2nc3ccc(NCc4ccccc4)cn3n2)CC1,-1.96
22,CC(C)CCN1CCc2[nH]nc(C(=O)N3CC=CC3)c2C1,-6.59
